A short description of data set [1]: Stability in aqueous media (FaSSIF, SGF, PBS). Type of data set: physicochemical. The settings on record: for FaSSIF (pH 6.5) % remaining 1 h / FaSSIF (pH 6.5) % remaining 6 h / FaSSIF (pH 6.5) % remaining 24 h: FaSSIF pH 6.5, 37° C.; for PBS (pH 7.4) % remaining 1 h / PBS (pH 7.4) % remaining 6 h / PBS (pH 7.4) % remaining 24 h: PBS pH 7.4, 37° C.; for SGF (pH 1.2) % remaining 1 h / SGF (pH 1.2) % remaining 6 h / SGF (pH 1.2) % remaining 24 h: SGF pH 1.2, 37° C. The procedure:
10 μL of a 10 mM stock solution of the Examples were dissolved in 490 μL DMSO to afford […] working solution SGF (pH 1.2):
Dissolve 0.04 g NaCl and 0.064 g pepsin in 0.14 mL HCl and add sufficient water to 20 mL volume. The pH of the test solution was 1.20±0.05.
0.056% (w/v) lecithin, 0.161% (w/v) sodium taurocholate, 0.39% (w/v) monobasic potassium phosphate, 0.77% (w/v) potassium chloride, deionized H2O. The pH of the test solution was 6.5±0.05.
30 mL of 10×PBS (pH7.4) was added into a 50 mL flask and diluted with water. The solution was mixed well and adjusted to pH 7.4 with 1 N HCl.
2 μL of the 200 μL working solution of the Examples was added into 96-deep-well plates for TO, T60, T120, T360 and T1440 timepoints. Duplicates were prepared.
Stability studies were commenced by the addition of 198 μL of the required media (e.g. Simulated Gastric Fluid pH 1.2 [SGF], Simulated Fasted State Intestinal Fluid pH 6.5 [FaSSIF]) and Phosphate Buffered Saline pH 7.4 [PBS]) to each well except TO. The samples were incubated at 37° C. at 600 rpm for the appointed time. The samples at the corresponding timepoint were removed and immediately mixed with 400 μL of cold acetonitrile containing 200 ng/mL tolbutamide and labetalol (internal standard). The samples were centrifuged at 4000 rpm at 4° C. for 20 minutes. 60 μL of the supernatant was removed and mixed with 180 μL purified water and thoroughly mixed and analysed by LCMS (Shimadzu LC 30-AD, ACQUITY UPLC BEH Phenyl 1.7 um 2.1*50 mm Part No. 186002884, with mobile phase A: 0.1% formic acid in water, mobile phase B: 0.1% formic acid in acetonitrile). Formation of parent was also monitored as a metabolite.
Samples were analysed by Mass Spectrometry QTRAP 6500+.

The format of data set [2] is in vitro ADME. The settings on record: rat plasma, 37° C. The procedure:
5 μL of a 10 mM stock solution of the Examples were dissolved in 495 μL DMSO to afford 500 μL working solution Assay procedure:
98 μL plasma was added to each well of a 96-well reaction plate, using one plate per timepoint (Blank, TO, T10, T30, T60, and T120). 2 μL of working solution was added to each well of the reaction plates except Blank. Each plate was incubated at 37° C. for the indicated timepoint (0, 10, 30, 60, 120 minutes). At the end of incubation, 400 μL of stop solution (200 ng/mL tolbutamide and 200 ng/mL labetalol in 0.1% FA in ACN) was added to precipitate protein. The plates were then sealed and shaken for 20 minutes before centrifugation at 4000 rpm for 20 minutes. […] Formation of parent was also monitored as a metabolite.

Data set [3] in a line: Solubility in simulated fluids (kinetic solubility, 24 hours). It counts as physicochemical. Particulars: thermodynamic from solid, 24 hour timepoint, room temperature. The procedure:
A known quantity of the Examples and control compounds were weighed into a suitable vessel (whatman miniuniprep vials) and a known volume of the required media was added (e.g. Simulated Gastric Fluid pH 1.2 [SGF], Simulated Fasted State Intestinal Fluid pH 6.5 [FaSSIF] or Phosphate Buffered Saline pH 7.4 [PBS]). The samples were subjected to vortex mixing for 2 minutes followed by agitation on a shaker for 24 hours at room temperature at 800 rpm.

In brackets after ≈: the same amount, converted by molar mass.

Consider eight compounds from patent US20260085069A1, “PRODRUGS” (Cambridge Enterprise Limited, priority 2022, published 2026).

Take `CC(C)OC(=O)c1ccc2c(c1)nc(OCCOCCCCNCc1cc(F)c(OC(F)(F)F)c(F)c1)c1ccncc12` [Example 2, isopropyl 5-(2-(4-((3,5-difluoro-4-(trifluoromethoxy)benzyl)amino)butoxy)ethoxy)benzo[c][2,6]naphthyridine-8-carboxylate]: in data set [1], the “FaSSIF (pH 6.5) % remaining 1 h” value was 95.4%, the “FaSSIF (pH 6.5) % remaining 6 h” value was determined as 80.5%, the “FaSSIF (pH 6.5) % remaining 24 h” value was determined as 87.2% and the “PBS (pH 7.4) % remaining 1 h” value was found to be 74.5%. Further, in data set [1], the “PBS (pH 7.4) % remaining 6 h” value is 31.0%, the “PBS (pH 7.4) % remaining 24 h” value came to 11.5%, the “SGF (pH 1.2) % remaining 1 h” value was 97.1% and the “SGF (pH 1.2) % remaining 6 h” value is on record as 57.9%. For the same compound, the “SGF (pH 1.2) % remaining 24 h” value in data set [1] is 19.6%.

Consider `CN(C)CCOC(=O)c1ccc2c(c1)nc(OCCOCCCCNCc1cc(F)c(OC(F)(F)F)c(F)c1)c1ccncc12` [Example 3, 2-(dimethylamino)ethyl 5-(2-(4-((3,5-difluoro-4-(trifluoromethoxy)benzyl)amino)butoxy)ethoxy)benzo[c][2,6]naphthyridine-8-carboxylate], for which, in data set [2], the “% Example remaining 0 min” value was found to be 100.0%, the “Example concentration (nM) 0 min” value was determined as 1830.9 nM, the “% Example remaining 10 min” value is given as 0.1% and the “Example concentration (nM) 10 min” value is listed as 2.7 nM. Moreover, in data set [1], the “FaSSIF (pH 6.5) % remaining 1 h” value is recorded as 102.2%, the “FaSSIF (pH 6.5) % remaining 6 h” value turned out to be 101.8%, the “FaSSIF (pH 6.5) % remaining 24 h” value came out at 98.6% and the “PBS (pH 7.4) % remaining 1 h” value came to 71.8%. Further, in data set [1], the “PBS (pH 7.4) % remaining 6 h” value amounted to 17.8%, the “PBS (pH 7.4) % remaining 24 h” value was 1.3%, the “SGF (pH 1.2) % remaining 1 h” value was 90.6% and the “SGF (pH 1.2) % remaining 6 h” value was 76.1%. Further, the “SGF (pH 1.2) % remaining 24 h” value in data set [1] is given as 33.5%.

Turning to `COC(=O)c1ccc2c(c1)nc(OCCOCCCCNCc1cc(F)c(OC(F)(F)F)c(F)c1)c1ccncc12` [Example 4, methyl 5-(2-(4-((3,5-difluoro-4-(trifluoromethoxy)benzyl)amino)butoxy)ethoxy)benzo[c][2,6]naphthyridine-8-carboxylate], in data set [1], the “FaSSIF (pH 6.5) % remaining 1 h” value was determined as 90.0%, the “FaSSIF (pH 6.5) % remaining 6 h” value was determined as 86.6%, the “FaSSIF (pH 6.5) % remaining 24 h” value is given as 93.3% and the “PBS (pH 7.4) % remaining 1 h” value is on record as 70.3%. Also, in data set [1], the “PBS (pH 7.4) % remaining 6 h” value is listed as 22.4%, the “PBS (pH 7.4) % remaining 24 h” value was 7.9%, the “SGF (pH 1.2) % remaining 1 h” value turned out to be 93.7% and the “SGF (pH 1.2) % remaining 6 h” value was 63.7%. For the same compound, the “SGF (pH 1.2) % remaining 24 h” value in data set [1] came out at 16.5%.

For the compound `CC(C)C(=O)OCOC(=O)c1ccc2c(c1)nc(OCCOCCCCNCc1cc(F)c(OC(F)(F)F)c(F)c1)c1ccncc12` [Example 5, (isobutyryloxy)methyl 5-(2-(4-((3,5-difluoro-4-(trifluoromethoxy)benzyl)amino)butoxy)ethoxy)benzo[c][2,6]naphthyridine-8-carboxylate], in data set [1], the “FaSSIF (pH 6.5) % remaining 1 h” value stood at 100.2%, the “FaSSIF (pH 6.5) % remaining 6 h” value amounted to 97.5%, the “FaSSIF (pH 6.5) % remaining 24 h” value is reported as 98.8% and the “PBS (pH 7.4) % remaining 1 h” value stood at 76.2%. For the same compound, in data set [1], the “PBS (pH 7.4) % remaining 6 h” value amounted to 7.9%, the “PBS (pH 7.4) % remaining 24 h” value came out at 2.4%, the “SGF (pH 1.2) % remaining 1 h” value stood at 87.0% and the “SGF (pH 1.2) % remaining 6 h” value was determined as 55.5%. The “SGF (pH 1.2) % remaining 24 h” value in data set [1] came to 13.0%.

On to `CC(C)(C)C(=O)OCOC(=O)c1ccc2c(c1)nc(OCCOCCCCNCc1cc(F)c(OC(F)(F)F)c(F)c1)c1ccncc12` [Example 6, (pivaloyloxy)methyl 5-(2-(4-((3,5-difluoro-4-(trifluoromethoxy)benzyl)amino)butoxy)ethoxy)benzo[c][2,6]naphthyridine-8-carboxylate], for which, in data set [2], the “% Example remaining 0 min” value stood at 100.0%, the “Example concentration (nM) 0 min” value is listed as 1779.1 nM, the “% Example remaining 10 min” value worked out at 0.3% and the “Example concentration (nM) 10 min” value was determined as 5.0 nM. In data set [1], the “FaSSIF (pH 6.5) % remaining 1 h” value worked out at 112.8%, the “FaSSIF (pH 6.5) % remaining 6 h” value amounted to 97.0%, the “FaSSIF (pH 6.5) % remaining 24 h” value is 109.4% and the “PBS (pH 7.4) % remaining 1 h” value was found to be 85.2%. Further, in data set [1], the “PBS (pH 7.4) % remaining 6 h” value came out at 27.7%, the “PBS (pH 7.4) % remaining 24 h” value was found to be 5.1%, the “SGF (pH 1.2) % remaining 1 h” value stood at 88.8% and the “SGF (pH 1.2) % remaining 6 h” value was found to be 59.8%. In data set [1], the “SGF (pH 1.2) % remaining 24 h” value is on record as 20.0%.

By solubility (kinetic) is commonly meant solubility judged after dilution from a stock solution rather than from solid. `Cc1oc(=O)oc1COC(=O)c1ccc2c(c1)nc(OCCOCCCCNCc1cc(F)c(OC(F)(F)F)c(F)c1)c1ccncc12` [Example 7, (5-methyl-2-oxo-1,3-dioxol-4-yl)methyl 5-(2-(4-((3,5-difluoro-4-(trifluoromethoxy)benzyl)amino)butoxy)ethoxy)benzo[c][2,6]naphthyridine-8-carboxylate] gave a solubility (kinetic) at 24 h in data set [3] (simulated gastric fluid, SGF (pH 1.2)) of 18.5 µg/mL (≈ 27.3 µM). In addition, the kinetic solubility at 24 h in data set [3] (FaSSIF (pH 6.5)) was 76.1 µg/mL (≈ 112 µM). Moreover, in data set [2], the “% Example remaining 0 min” value is 100.0%, the “Example concentration (nM) 0 min” value is given as 1887.9 nM, the “% Example remaining 10 min” value is 0.1% and the “Example concentration (nM) 10 min” value is on record as 1.2 nM. For the same compound, in data set [1], the “FaSSIF (pH 6.5) % remaining 1 h” value was found to be 101.0%, the “FaSSIF (pH 6.5) % remaining 6 h” value is 93.5%, the “FaSSIF (pH 6.5) % remaining 24 h” value amounted to 89.1% and the “PBS (pH 7.4) % remaining 1 h” value is on record as 78.9%. Moreover, in data set [1], the “PBS (pH 7.4) % remaining 6 h” value came out at 16.7%, the “PBS (pH 7.4) % remaining 24 h” value turned out to be 0.7%, the “SGF (pH 1.2) % remaining 1 h” value is 98.9% and the “SGF (pH 1.2) % remaining 6 h” value was determined as 67.2%. The “SGF (pH 1.2) % remaining 24 h” value in data set [1] is given as 26.9%.

For the compound `COC(=O)OCOC(=O)c1ccc2c(c1)nc(OCCOCCCCNCc1cc(F)c(OC(F)(F)F)c(F)c1)c1ccncc12` [Example 11, ((methoxycarbonyl)oxy)methyl 5-(2-(4-((3,5-difluoro-4-(trifluoromethoxy)benzyl)amino)butoxy)ethoxy)benzo[c][2,6]naphthyridine-8-carboxylate], in data set [1], the “FaSSIF (pH 6.5) % remaining 1 h” value turned out to be 96.4%, the “FaSSIF (pH 6.5) % remaining 6 h” value is 97.5%, the “FaSSIF (pH 6.5) % remaining 24 h” value is listed as 105.9% and the “PBS (pH 7.4) % remaining 1 h” value came to 81.2%. In data set [1], the “PBS (pH 7.4) % remaining 6 h” value worked out at 29.3%, the “PBS (pH 7.4) % remaining 24 h” value is given as 19.0%, the “SGF (pH 1.2) % remaining 1 h” value amounted to 100.2% and the “SGF (pH 1.2) % remaining 6 h” value is on record as 66.3%. Moreover, in data set [1], the “SGF (pH 1.2) % remaining 24 h” value amounted to 21.5%.

In the case of `CC(C)(C)OC(=O)OCOC(=O)c1ccc2c(c1)nc(OCCOCCCCNCc1cc(F)c(OC(F)(F)F)c(F)c1)c1ccncc12` [Example 15, ((tert-butoxycarbonyl)oxy)methyl 5-(2-(4-((3,5-difluoro-4-(trifluoromethoxy)benzyl)amino)butoxy)ethoxy)benzo[c][2,6]naphthyridine-8-carboxylate], in data set [1], the “FaSSIF (pH 6.5) % remaining 1 h” value was 99.0%, the “FaSSIF (pH 6.5) % remaining 6 h” value is 97.9%, the “FaSSIF (pH 6.5) % remaining 24 h” value is given as 98.6% and the “PBS (pH 7.4) % remaining 1 h” value amounted to 100.3%. Also, in data set [1], the “PBS (pH 7.4) % remaining 6 h” value came to 49.7%, the “PBS (pH 7.4) % remaining 24 h” value is 7.9%, the “SGF (pH 1.2) % remaining 1 h” value is recorded as 47.5% and the “SGF (pH 1.2) % remaining 6 h” value came out at 3.8%. The “SGF (pH 1.2) % remaining 24 h” value in data set [1] was determined as 1.8%.
